Tested on: ARR4
Assay: qRT-PCR of cytokinin responsive gene after BA pulse, fold change vs untreated wild type
Assay type: cell-based, Arabidopsis thaliana

**Q.** Which results are given for `c1ccc(CNc2ncnc3nc[nH]c23)cc1` [benzyladenine]?
**A.** ARR4 fold change (BA 0.01 μM, 5 min, AS1, ↑ up): 4.12↑; ARR4 fold change (BA 0.01 μM, 5 min, AS8, ↑ up): 6.1↑; ARR4 fold change (BA 0.01 μM, 5 min, AS21, ↑ up): 8.01↑; ARR4 fold change (BA 0.01 μM, 5 min, OE1, ↓ down): 5.01↓; ARR4 fold change (BA 0.01 μM, 5 min, OE12, ↓ down): 5.87↓; ARR4 fold change (BA 0.01 μM, 5 min, OE18, ↓ down): 7.56↓; ARR4 fold change (BA 0.01 μM, 5 min, Wild type, ↑ up): 3.13↑; ARR4 fold change (BA 0.01 μM, 15 min, AS1, ↑ up): 4.57↑; ARR4 fold change (BA 0.01 μM, 15 min, AS8, ↑ up): 6.41↑; ARR4 fold change (BA 0.01 μM, 15 min, AS21, ↑ up): 8.39↑; ARR4 fold change (BA 0.01 μM, 15 min, OE1, ↓ down): 4.66↓; ARR4 fold change (BA 0.01 μM, 15 min, OE12, ↓ down): 5.56↓; ARR4 fold change (BA 0.01 μM, 15 min, OE18, ↓ down): 7.32↓; ARR4 fold change (BA 0.01 μM, 15 min, Wild type, ↑ up): 3.67↑; ARR4 fold change (BA 0.01 μM, 30 min, AS1, ↑ up): 4.98↑; ARR4 fold change (BA 0.01 μM, 30 min, AS8, ↑ up): 6.86↑; ARR4 fold change (BA 0.01 μM, 30 min, AS21, ↑ up): 8.53↑; ARR4 fold change (BA 0.01 μM, 30 min, OE1, ↓ down): 4.41↓; ARR4 fold change (BA 0.01 μM, 30 min, OE12, ↓ down): 5.13↓; ARR4 fold change (BA 0.01 μM, 30 min, OE18, ↓ down): 7.13↓; ARR4 fold change (BA 0.01 μM, 30 min, Wild type, ↑ up): 3.98↑; ARR4 fold change (BA 0.01 μM, 1 h, AS1, ↑ up): 5.2↑; ARR4 fold change (BA 0.01 μM, 1 h, AS8, ↑ up): 6.98↑; ARR4 fold change (BA 0.01 μM, 1 h, AS21, ↑ up): 8.99↑; ARR4 fold change (BA 0.01 μM, 1 h, OE1, ↓ down): 4.01↓; ARR4 fold change (BA 0.01 μM, 1 h, OE12, ↓ down): 4.06↓; ARR4 fold change (BA 0.01 μM, 1 h, OE18, ↓ down): 6.98↓; ARR4 fold change (BA 0.01 μM, 1 h, Wild type, ↑ up): 4.15↑; ARR4 fold change (BA 0.1 μM, 5 min, AS1, ↑ up): 5.14↑; ARR4 fold change (BA 0.1 μM, 5 min, AS8, ↑ up): 7.12↑; ARR4 fold change (BA 0.1 μM, 5 min, AS21, ↑ up): 9.11↑; ARR4 fold change (BA 0.1 μM, 5 min, OE1, ↓ down): 4.56↓; ARR4 fold change (BA 0.1 μM, 5 min, OE12, ↓ down): 4.91↓; ARR4 fold change (BA 0.1 μM, 5 min, OE18, ↓ down): 6.89↓; ARR4 fold change (BA 0.1 μM, 5 min, Wild type, ↑ up): 4.36↑; ARR4 fold change (BA 0.1 μM, 15 min, AS1, ↑ up): 5.39↑; ARR4 fold change (BA 0.1 μM, 15 min, AS8, ↑ up): 7.32↑; ARR4 fold change (BA 0.1 μM, 15 min, AS21, ↑ up): 9.26↑; ARR4 fold change (BA 0.1 μM, 15 min, OE1, ↓ down): 4.24↓; ARR4 fold change (BA 0.1 μM, 15 min, OE12, ↓ down): 4.71↓; ARR4 fold change (BA 0.1 μM, 15 min, OE18, ↓ down): 4.72↓; ARR4 fold change (BA 0.1 μM, 15 min, Wild type, ↑ up): 4.58↑; ARR4 fold change (BA 0.1 μM, 30 min, AS1, ↑ up): 5.69↑; ARR4 fold change (BA 0.1 μM, 30 min, AS8, ↑ up): 7.57↑; ARR4 fold change (BA 0.1 μM, 30 min, AS21, ↑ up): 9.48↑; ARR4 fold change (BA 0.1 μM, 30 min, OE1, ↓ down): 4.12↓; ARR4 fold change (BA 0.1 μM, 30 min, OE12, ↓ down): 4.59↓; ARR4 fold change (BA 0.1 μM, 30 min, OE18, ↓ down): 4.36↓; ARR4 fold change (BA 0.1 μM, 30 min, Wild type, ↑ up): 4.89↑; ARR4 fold change (BA 0.1 μM, 1 h, AS1, ↑ up): 5.98↑; ARR4 fold change (BA 0.1 μM, 1 h, AS8, ↑ up): 7.99↑; ARR4 fold change (BA 0.1 μM, 1 h, AS21, ↑ up): 9.83↑; ARR4 fold change (BA 0.1 μM, 1 h, OE1, ↓ down): 3.96↓; ARR4 fold change (BA 0.1 μM, 1 h, OE12, ↓ down): 4.21↓; ARR4 fold change (BA 0.1 μM, 1 h, OE18, ↓ down): 4.01↓; ARR4 fold change (BA 0.1 μM, 1 h, Wild type, ↑ up): 4.99↑; ARR4 fold change (BA 1.0 μM, 5 min, AS1, ↑ up): 6.43↑; ARR4 fold change (BA 1.0 μM, 5 min, AS8, ↑ up): 8.01↑; ARR4 fold change (BA 1.0 μM, 5 min, AS21, ↑ up): 9.93↑; ARR4 fold change (BA 1.0 μM, 5 min, OE1, ↓ down): 3.76↓; ARR4 fold change (BA 1.0 μM, 5 min, OE12, ↓ down): 4.19↓; ARR4 fold change (BA 1.0 μM, 5 min, OE18, ↓ down): 3.36↓; ARR4 fold change (BA 1.0 μM, 5 min, Wild type, ↑ up): 5.1↑; ARR4 fold change (BA 1.0 μM, 15 min, AS1, ↑ up): 6.68↑; ARR4 fold change (BA 1.0 μM, 15 min, AS8, ↑ up): 8.43↑; ARR4 fold change (BA 1.0 μM, 15 min, AS21, ↑ up): 10.02↑; ARR4 fold change (BA 1.0 μM, 15 min, OE1, ↓ down): 3.51↓; ARR4 fold change (BA 1.0 μM, 15 min, OE12, ↓ down): 4.01↓; ARR4 fold change (BA 1.0 μM, 15 min, OE18, ↓ down): 3.21↓; ARR4 fold change (BA 1.0 μM, 15 min, Wild type, ↑ up): 5.31↑; ARR4 fold change (BA 1.0 μM, 30 min, AS1, ↑ up): 6.73↑; ARR4 fold change (BA 1.0 μM, 30 min, AS8, ↑ up): 8.69↑; ARR4 fold change (BA 1.0 μM, 30 min, AS21, ↑ up): 10.35↑; ARR4 fold change (BA 1.0 μM, 30 min, OE1, ↓ down): 3.29↓; ARR4 fold change (BA 1.0 μM, 30 min, OE12, ↓ down): 3.89↓; ARR4 fold change (BA 1.0 μM, 30 min, OE18, ↓ down): 3.01↓; ARR4 fold change (BA 1.0 μM, 30 min, Wild type, ↑ up): 5.59↑; ARR4 fold change (BA 1.0 μM, 1 h, AS1, ↑ up): 7.01↑; ARR4 fold change (BA 1.0 μM, 1 h, AS8, ↑ up): 8.93↑; ARR4 fold change (BA 1.0 μM, 1 h, AS21, ↑ up): 10.76↑; ARR4 fold change (BA 1.0 μM, 1 h, OE1, ↓ down): 3.01↓; ARR4 fold change (BA 1.0 μM, 1 h, OE12, ↓ down): 3.56↓; ARR4 fold change (BA 1.0 μM, 1 h, OE18, ↓ down): 2.92↓; ARR4 fold change (BA 1.0 μM, 1 h, Wild type, ↑ up): 5.87↑; ARR4 fold change (BA 5.0 μM, 5 min, AS1, ↑ up): 6.98↑; ARR4 fold change (BA 5.0 μM, 5 min, AS8, ↑ up): 8.98↑; ARR4 fold change (BA 5.0 μM, 5 min, AS21, ↑ up): 10.43↑; ARR4 fold change (BA 5.0 μM, 5 min, OE1, ↓ down): 3.19↓; ARR4 fold change (BA 5.0 μM, 5 min, OE12, ↓ down): 3.87↓; ARR4 fold change (BA 5.0 μM, 5 min, OE18, ↓ down): 2.45↓; ARR4 fold change (BA 5.0 μM, 5 min, Wild type, ↑ up): 6.52↑; ARR4 fold change (BA 5.0 μM, 15 min, AS1, ↑ up): 7.01↑; ARR4 fold change (BA 5.0 μM, 15 min, AS8, ↑ up): 9.07↑; ARR4 fold change (BA 5.0 μM, 15 min, AS21, ↑ up): 10.54↑; ARR4 fold change (BA 5.0 μM, 15 min, OE1, ↓ down): 3.01↓; ARR4 fold change (BA 5.0 μM, 15 min, OE12, ↓ down): 3.62↓; ARR4 fold change (BA 5.0 μM, 15 min, OE18, ↓ down): 2.18↓; ARR4 fold change (BA 5.0 μM, 15 min, Wild type, ↑ up): 6.69↑; ARR4 fold change (BA 5.0 μM, 30 min, AS1, ↑ up): 7.23↑; ARR4 fold change (BA 5.0 μM, 30 min, Wild type, ↑ up): 6.89↑

— US9290777B2, “Putative cytokinin receptor and methods for use thereof” (NATIONAL UNIVERSITY OF SINGAPORE, priority 2007, dated 2016)
